Results on 15 compounds are retold here after ChEMBL document CHEMBL1136572, “Piperazine-based CCR5 antagonists as HIV-1 inhibitors. III: synthesis, antiviral and pharmacokinetic profiles of symmetrical heteroaryl carboxamides” (Bioorg Med Chem Lett, 2003).

For series [1], the target named is T1, Muscarinic acetylcholine receptor M2 (Homo sapiens, UniProt P08172).
T1 sequence (P08172 whole entry): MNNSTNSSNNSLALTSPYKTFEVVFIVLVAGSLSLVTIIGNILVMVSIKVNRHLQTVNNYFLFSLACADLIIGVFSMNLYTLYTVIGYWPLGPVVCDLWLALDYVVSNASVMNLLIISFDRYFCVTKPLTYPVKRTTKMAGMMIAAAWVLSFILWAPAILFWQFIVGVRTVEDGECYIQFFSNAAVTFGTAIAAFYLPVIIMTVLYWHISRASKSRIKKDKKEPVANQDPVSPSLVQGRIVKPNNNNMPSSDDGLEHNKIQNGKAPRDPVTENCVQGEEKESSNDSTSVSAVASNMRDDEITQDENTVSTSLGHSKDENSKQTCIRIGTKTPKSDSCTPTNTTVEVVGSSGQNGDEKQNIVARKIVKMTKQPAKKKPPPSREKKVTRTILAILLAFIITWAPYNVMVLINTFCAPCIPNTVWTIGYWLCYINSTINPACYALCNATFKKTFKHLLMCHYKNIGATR
In words: Binding affinity towards muscarinic receptor M2.

Series [2] has as its target C-C chemokine receptor type 5 (Homo sapiens, UniProt P51681). In words: Ability to inhibit [125I]-labeled RANTES binding to the CCR5 receptor expressed in membrane preparations from CHO cells. Type of series: cell membranes.
Series [3] relates to U-87 MG. Put plainly: Tested for inhibiting HIV (ADA) entry into cells. Type of series: functional, cell-based, U-87MG ATCC. The settings on record: Homo sapiens.
The nature of series [4]: Compound was tested for inhibition of HIV isolate ASM 108 (wt) in peripheral blood mononuclear cells (PBMC). Type of series: functional.
Series [5] in a line: Compound was tested for inhibition of HIV isolate bal (hz) in peripheral blood mononuclear cells (PBMC). Type of series: functional.
Series [6] can be described thus: Compound was tested for inhibition of HIV isolate JV 1083 in peripheral blood mononuclear cells (PBMC). Type of series: functional.
A short description of series [7]: Compound was tested for inhibition of HIV isolate BCF01 in peripheral blood mononuclear cells (PBMC). Type of series: functional.
Series [8] is described as follows: Ratio of AUCbrain to AUCplasma. Type of series: ADME, organism-based. The settings on record: rat, brain and plasma.
The nature of series [9]: Oral bioavailability evaluated in rat. Type of series: ADME, organism-based. The settings on record: in vivo.
Series [10] in a line: Compound was tested for inhibition of HIV isolate 301657 (hz) in peripheral blood mononuclear cells (PBMC). Type of series: functional.
A short description of series [11]: Cmax value evaluated in rat. Type of series: ADME, organism-based. The settings on record: in vivo.
A short description of series [12]: Cmax value evaluated in monkey. Type of series: ADME, organism-based. The conditions noted are these: cercopithecidae, in vivo.
The nature of series [13]: Compound was tested for inhibition of HIV isolate ASM 108 (hz) in peripheral blood mononuclear cells (PBMC). Type of series: functional.
Series [14] in a line: Compound was tested for inhibition of HIV isolate US-1 in peripheral blood mononuclear cells (PBMC). Type of series: functional.
Series [15] can be described thus: Compound was tested for inhibition of HIV isolate YU-2 (hz) in peripheral blood mononuclear cells (PBMC). Type of series: functional.
For series [16], the target named is T1, Muscarinic acetylcholine receptor M2. Put plainly: Inhibition of binding affinity to muscarinic receptor M2.
The nature of series [17]: Compound was tested for inhibition of HIV isolate 301657 (wt) in peripheral blood mononuclear cells (PBMC). Type of series: functional.
The nature of series [18]: Oral bioavailability evaluated in monkey. Type of series: ADME, organism-based. The settings on record: cercopithecidae, in vivo.
Series [19] is described as follows: Compound was tested for inhibition of HIV isolate YU-2 (wt) in peripheral blood mononuclear cells (PBMC). Type of series: functional.
Series [20] has as its system BaF3. Put plainly: Inhibition of 0.1 nM of MIP-1beta induced migration of recombinant mouse pro-B cell line BA/F3 expressing human CCR5. Type of series: functional, cell-based.
Series [21] relates to Rattus norvegicus. Put plainly: Dose required for observing cardiovascular effects in rats after peroral administration. Type of series: functional, Heart.
Series [22] relates to Rattus norvegicus. In words: Dose required for observing CNS and GI effects in rats after peroral administration. Type of series: functional.
Series [23] has as its target T2, Muscarinic acetylcholine receptor M1 (Homo sapiens, UniProt P11229).
T2 sequence (P11229 whole entry): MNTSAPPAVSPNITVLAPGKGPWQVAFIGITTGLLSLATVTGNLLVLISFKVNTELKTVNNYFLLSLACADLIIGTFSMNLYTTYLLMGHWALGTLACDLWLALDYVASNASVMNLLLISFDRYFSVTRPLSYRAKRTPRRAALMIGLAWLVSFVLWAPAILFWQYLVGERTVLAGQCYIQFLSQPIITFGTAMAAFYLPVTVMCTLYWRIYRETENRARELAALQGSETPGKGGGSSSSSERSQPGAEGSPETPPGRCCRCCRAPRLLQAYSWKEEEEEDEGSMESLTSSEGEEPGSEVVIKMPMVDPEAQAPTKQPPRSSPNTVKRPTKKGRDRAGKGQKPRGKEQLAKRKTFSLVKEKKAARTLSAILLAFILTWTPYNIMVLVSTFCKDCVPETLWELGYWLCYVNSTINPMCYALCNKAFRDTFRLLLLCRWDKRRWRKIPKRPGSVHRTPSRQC
In words: Binding affinity towards muscarinic receptor M1.

The test system of series [24] is U-87 MG. In words: Compound was tested for inhibiting HIV (ADA) entry into U-87 cells; range is 2-20 nM. Type of series: functional, cell-based, U-87MG ATCC. The conditions noted are these: Homo sapiens.
The test system of series [25] is U-87 MG. In words: Compound was tested for inhibiting HIV (ADA) entry into cells; Range is 0.2-2.0 nM. Type of series: functional, cell-based, U-87MG ATCC. The settings on record: Homo sapiens.

Sequence of C-C chemokine receptor type 5 (P51681 whole entry): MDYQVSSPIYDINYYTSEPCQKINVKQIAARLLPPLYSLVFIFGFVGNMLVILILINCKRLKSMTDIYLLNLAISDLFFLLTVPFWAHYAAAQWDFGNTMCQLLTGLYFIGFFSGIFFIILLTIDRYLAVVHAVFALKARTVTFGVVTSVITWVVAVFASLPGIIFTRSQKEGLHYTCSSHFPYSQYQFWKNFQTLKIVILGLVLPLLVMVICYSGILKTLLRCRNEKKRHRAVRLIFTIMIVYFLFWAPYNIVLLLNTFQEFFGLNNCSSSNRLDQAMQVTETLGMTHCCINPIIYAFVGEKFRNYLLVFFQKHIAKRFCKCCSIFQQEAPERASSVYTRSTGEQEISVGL

With `Cc1ncnc(C)c1C(=O)N1CCC(C)(N2CCN([C@@H](C)c3ccc(I)cc3)[C@@H](C)C2)CC1`, the inhibition constant (Ki) (as a rule, a dissociation constant, usually derived from enzyme kinetics or from competition with a known ligand) in series [1] was determined as 169 nM; in series [2], 11 nM.
As to `C[C@H]1CN(C2(C)CCN(C(=O)c3c(Cl)cncc3Cl)CC2)CCN1[C@@H](C)c1ccc(C(F)(F)F)cc1`, the Ki was found to be 2030 nM in series [1] and 0.7 nM in series [2]. In addition, the concentration for half-maximal inhibition (IC50) (in general, the concentration at which inhibition is half-maximal) in series [3] was 0.3 nM.
For `Cc1nc(C(F)(F)F)nc(C)c1C(=O)N1CCC(C)(N2CCN([C@@H](C)c3ccc(C(F)(F)F)cc3)[C@@H](C)C2)CC1`, the results for the inhibitory constant (Ki) in series [1] and in [2] were 613 nM and 10 nM, respectively. In addition, the half-maximal inhibitory concentration (IC50) in series [3] is 0.1 nM.
For `Cc1ncnc(C)c1C(=O)N1CCC(C)(N2CCN([C@@H](C)c3ccc(C(F)(F)F)cc3)[C@@H](C)C2)CC1`, the IC50 turned out to be 7 nM in [4]; 6.4 nM in series [5]; 166 nM in [6]; 200 nM in series [7]; 26.8 nM in series [10]; 0.5 nM in series [3]. For the same compound, the 50% inhibitory concentration (IC50) in series [13] amounted to 0.2 nM; in series [14] it was 0.7 nM; in series [15], 1.3 nM; in series [17] it was 3.2 nM; in [19], 2.3 nM. Moreover, the concentration for an effect of 90% (IC90) (commonly the concentration at which the effect reaches the 90% level) is 17 nM in series [4] (Human immunodeficiency virus 1); 60 nM in [5] (Human immunodeficiency virus 1); over 300 nM in series [6] (Human immunodeficiency virus 1); over 1000 nM in series [7] (Human immunodeficiency virus 1); over 1000 nM in series [10] (Human immunodeficiency virus 1); 3 nM in [13] (Human immunodeficiency virus 1). The 90% effect concentration (IC90) in [14] (Human immunodeficiency virus 1) stood at 4 nM; in series [15] (Human immunodeficiency virus 1), 100 nM; in series [17] (Human immunodeficiency virus 1), 24 nM; in series [19] (Human immunodeficiency virus 1) it was 8 nM. Further, the Kp (as a rule, tissue or fluid exposure divided by exposure in the circulation) in series [8] was found to be 1.7. In addition, the Ki in [1] and in series [16] was 456 nM throughout. For the same compound, the bioavailability (usually the share of a dose that reaches the circulation, judged against a reference dose that is usually intravenous) in [9] came out at 97%; in series [18], 50%. In addition, the values for the Cmax in [11] and in series [12] were 1490 ng/mL and 340 ng/mL, respectively.
Regarding `C[C@H]1CN(C2(C)CCN(C(=O)c3c(Cl)c[n+]([O-])cc3Cl)CC2)CCN1[C@@H](C)c1ccc(C(F)(F)F)cc1`, the figures for the inhibition constant (Ki) in [1] and in [2] were 348 nM and 2.7 nM, respectively. The compound further registered a half-maximal inhibitory concentration (IC50) in series [3] of 0.45 nM.
`Cc1cncc(C)c1C(=O)N1CCC(C)(N2CCN([C@@H](C)c3ccc(C(F)(F)F)cc3)[C@@H](C)C2)CC1`: the inhibitory constant (Ki) in series [1] came out at 1680 nM; in [2], 5.23 nM.
As for `Cc1cc[n+]([O-])c(C)c1C(=O)N1CCC(C)(N2CCN([C@@H](C)c3ccc(C(F)(F)F)cc3)[C@@H](C)C2)CC1`, the concentration for half-maximal inhibition (IC50) in series [20] came out at 0.1 nM; in series [24], 2 nM. Also, the Dose in series [21] was 10 mg/kg; in series [22], 30 mg/kg. In series [23], this compound registered a Ki of 350 nM.
Turning to `Cc1nc(C)c(C(=O)N2CCC(C)(N3CCN([C@@H](C)c4ccc(C(F)(F)F)cc4)[C@@H](C)C3)CC2)c(C)n1`, the Ki is 985 nM in [1] and 10 nM in [2]. This compound showed an IC50 in series [3] of 1.45 nM.
Consider `COc1nc(C)c(C(=O)N2CCC(C)(N3CCN([C@@H](C)c4ccc(C(F)(F)F)cc4)[C@@H](C)C3)CC2)c(C)n1`, for which the figures for the inhibitory constant (Ki) in series [1] and in series [2] were 202 nM and 11 nM, respectively.
On to `Cc1ncnc(C)c1C(=O)N1CCC(C)(N2CCN([C@@H](C)c3ccc(C#N)cc3)[C@@H](C)C2)CC1`, for which the Ki was 164 nM in [1] and 20 nM in series [2]. Besides, the concentration for half-maximal inhibition (IC50) in series [3] amounted to 1.8 nM.
In the same order, the values of `Cc1ncnc(C)c1C(=O)N1CCC(C)(N2CCN([C@@H](C)c3ccc(OC(F)(F)F)cc3)[C@@H](C)C2)CC1` are 68 nM, 11 nM and 1.2 nM.
With `Cc1c[n+]([O-])cc(C)c1C(=O)N1CCC(C)(N2CCN([C@@H](C)c3ccc(C(F)(F)F)cc3)[C@@H](C)C2)CC1`, the inhibitory constant (Ki) was determined as 255 nM in series [1] and 18 nM in [2]. The same compound came in with an IC50 in [3] of 0.9 nM.
In the case of `Cc1nc(N)nc(C)c1C(=O)N1CCC(C)(N2CCN([C@@H](C)c3ccc(C(F)(F)F)cc3)[C@@H](C)C2)CC1`, the results for the inhibition constant Ki in [1] and in series [2] were 1100 nM and 38 nM, respectively.
For the compound `Cc1ccnc(C)c1C(=O)N1CCC(C)(N2CCN([C@@H](C)c3ccc(C(F)(F)F)cc3)[C@@H](C)C2)CC1`, the IC50 in series [20] was found to be 0.03 nM; in [25] it was 0.2 nM. Further, in series [2], the affinity corresponds to a Ki of 2 nM.
For the compound `Cc1nc(-c2ccccc2)nc(C)c1C(=O)N1CCC(C)(N2CCN([C@@H](C)c3ccc(C(F)(F)F)cc3)[C@@H](C)C2)CC1`, the inhibition constant Ki in series [1] came to 1230 nM; in series [2] it was 12 nM. For the same compound, the 50% inhibitory concentration (IC50) in series [3] was 1.8 nM.
